According to paper PMC11012124, “Synthesis of Novel Triazine-Based Chalcones and 8,9-dihydro-7H-pyrimido[4,5-b][1,4]diazepines as Potential Leads in the Search of Anticancer, Antibacterial and Antifungal Agents” (International Journal of Molecular Sciences, 2024):

Tests used:
[1] = test system: K-562; assay: cells; conditions: Homo sapiens, K562, 48 h; for GI50: K-562, 48 h; for CC50: read-out: LC50
[2] = test system: A498; assay: cells; conditions: Homo sapiens, A498, 48 h; for CC50: read-out: LC50
[3] = test system: DU-145; assay: cells; conditions: Homo sapiens, DU-145, 48 h; for CC50: read-out: LC50
[4] = test system: MCF7; assay: cells; conditions: Homo sapiens, MCF7, 48 h; for CC50: read-out: LC50
[5] = test system: CAKI-1; assay: cells; conditions: Homo sapiens, CAKI-1, 48 h; for CC50: read-out: LC50
[6] = test system: PC-3; assay: cells; conditions: Homo sapiens, PC-3, 48 h; for CC50: read-out: LC50
[7] = test system: SF-539; assay: cells; conditions: Homo sapiens, SF-539, 48 h; for CC50: read-out: LC50, SF-539, 48 h
[8] = test system: LOX IMVI; assay: cells; conditions: Homo sapiens, 48 h; for CC50: read-out: LC50, LOX IMVI, 48 h
[9] = test system: OVCAR-3; assay: cells; conditions: Homo sapiens, OVCAR-3, 48 h; for CC50: read-out: LC50
[10] = test system: SK-OV-3; assay: cells; conditions: Homo sapiens, SK-OV-3, 48 h; for CC50: read-out: LC50
[11] = Hemolytic activity, spectrophotometric; format: cell-based, human; conditions: human, human red blood cells (huRBC), 5% hematocrit, 200 μg/mL, 37 °C
[12] = test system: HCC-2998; assay: cells; conditions: Homo sapiens, HCC 2998, 48 h; for CC50: read-out: LC50
[13] = test system: RXF 393; assay: cells; conditions: Homo sapiens, RXF 393, 48 h; for CC50: read-out: LC50
[14] = test system: MDA-MB-468; assay: cells; conditions: Homo sapiens, MDA-MB-468, 48 h; for CC50: read-out: LC50
[15] = test system: HT29; assay: cells; conditions: Homo sapiens, HT-29, 48 h; for CC50: read-out: LC50
[16] = test system: NCI-H522; assay: cells; conditions: Homo sapiens, NCI-H522, 48 h; for CC50: read-out: LC50
[17] = test system: SR; assay: cells; conditions: Homo sapiens, 48 h; for CC50: read-out: LC50
[18] = test system: T-47D; assay: cells; conditions: Homo sapiens, T47D, 48 h; for CC50: read-out: LC50
[19] = test system: UACC-62; assay: cells; conditions: Homo sapiens, UACC-62, 48 h; for CC50: read-out: LC50
[20] = test system: MOLT-4; assay: cells; conditions: Homo sapiens, MOLT-4, 48 h; for CC50: read-out: LC50
[21] = test system: NCI/ADR-RES; assay: cells; conditions: Homo sapiens, 48 h; for CC50: read-out: LC50
[22] = test system: TK-10; assay: cells; conditions: Homo sapiens, TK-10, 48 h; for CC50: read-out: LC50
[23] = test system: HOP-92; assay: cells; conditions: Homo sapiens, HOP-92, 48 h; for CC50: read-out: LC50
[24] = test system: MDA-MB-231/ATCC; assay: cells; conditions: Homo sapiens, MDA-MB-231, 48 h; for CC50: read-out: LC50
[25] = test system: HS 578T; assay: cells; conditions: Homo sapiens, 48 h; for CC50: read-out: LC50

## COc1cc(/C=C/C(=O)c2cc(OC)c(OC)c(OC)c2)ccc1Oc1nc(NCCO)nc(N2CCOCC2)n1 [20d]
[1]
  GI50: 1.91 µM
  CC50: > 100 µM
[2]
  GI50: 3.58 µM
  CC50: 37 µM
[3]
  GI50: 2.99 µM
  CC50: 35.3 µM
[4]
  GI50: 1.72 µM
  CC50: 61.5 µM
[5]
  GI50: 2.43 µM
  CC50: 30.4 µM
[6]
  GI50: 3.11 µM
  CC50: 43.2 µM
[7]
  GI50: 1.88 µM
  CC50: 13 µM
[8]
  GI50: 0.642 µM
  CC50: 4.99 µM
[9]
  GI50: 3.2 µM
  CC50: 34.4 µM
[10]
  GI50: 2.44 µM
  CC50: 22 µM
[11]
  hemolysis at 24 h, 200 µg/mL: 1.2%
[12]
  GI50: 2.23 µM
  CC50: 7.97 µM
[13]
  GI50: 1.75 µM
  CC50: 6.94 µM
[14]
  GI50: 1.71 µM
  CC50: 14.3 µM
[15]
  GI50: 2.83 µM
  CC50: 32.9 µM
[16]
  GI50: 1.56 µM
  CC50: 6.43 µM
[17]
  GI50: 0.784 µM
  CC50: > 100 µM
[18]
  GI50: 3.12 µM
  CC50: 39.9 µM
[19]
  GI50: 1.69 µM
  CC50: 6.03 µM
[20]
  GI50: 1.98 µM
  CC50: > 100 µM
[21]
  GI50: 4.72 µM
  CC50: 95.9 µM
[22]
  GI50: 3.12 µM
  CC50: 30.6 µM
[23]
  GI50: 2.75 µM
  CC50: 35.4 µM
[24]
  GI50: 2.86 µM
  CC50: 35.4 µM
[25]
  GI50: 3.62 µM
  CC50: > 100 µM

## Nc1nc(N)c2c(n1)NC(c1ccc(C(F)(F)F)cc1)CC(c1ccc(Nc3nc(NCCO)nc(Nc4ccc(Cl)cc4)n3)cc1)=N2 (stereo not shown) [33g]
[1]
  GI50: 0.642 µM
  CC50: > 100 µM
[2]
  GI50: 1.56 µM
  CC50: 5.4 µM
[3]
  GI50: 1.51 µM
  CC50: 5.33 µM
[4]
  GI50: 1.26 µM
[5]
  GI50: 1.45 µM
  CC50: 5.61 µM
[6]
  GI50: 1.54 µM
[7]
  GI50: 1.56 µM
  CC50: 5.68 µM
[8]
  GI50: 1.77 µM
[9]
  GI50: 1.32 µM
  CC50: 6.57 µM
[10]
  GI50: 1.83 µM
  CC50: 6.52 µM
[11]
  hemolysis at 24 h, 200 µg/mL: 22%
[12]
  GI50: 1.31 µM
  CC50: 5.25 µM
[13]
  GI50: 1.14 µM
  CC50: 5.48 µM
[14]
  GI50: 1.58 µM
  CC50: 6.53 µM
[15]
  GI50: 1.36 µM
  CC50: 6.54 µM
[16]
  GI50: 1.34 µM
  CC50: 5.54 µM
[17]
  GI50: 1.46 µM
  CC50: > 100 µM
[18]
  GI50: 1.55 µM
  CC50: 8.75 µM
[19]
  GI50: 1.68 µM
[20]
  GI50: 0.888 µM
  CC50: > 100 µM
[21]
  GI50: 1.95 µM
[22]
  GI50: 1.78 µM
  CC50: 5.63 µM
[23]
  GI50: 1.48 µM
  CC50: 7.94 µM
[24]
  GI50: 1.88 µM
[25]
  GI50: 2.55 µM
  CC50: > 100 µM

## Nc1nc(N)c2c(n1)NC(c1ccc(Cl)cc1)CC(c1ccc(Nc3nc(NCCO)nc(Nc4ccc(Cl)cc4)n3)cc1)=N2 (stereo not shown) [33e]
[1]
  GI50: 0.71 µM
  CC50: > 100 µM
[2]
  GI50: 5.9 µM
  CC50: 44.5 µM
[3]
  GI50: 2.22 µM
  CC50: 22.8 µM
[4]
  GI50: 1.2 µM
  CC50: 5.47 µM
[5]
  GI50: 5.36 µM
  CC50: > 100 µM
[6]
  GI50: 1.93 µM
  CC50: > 100 µM
[7]
  GI50: 1.68 µM
  CC50: 6.56 µM
[8]
  GI50: 1.45 µM
  CC50: 5.63 µM
[10]
  GI50: 14.8 µM
  CC50: 58.3 µM
[11]
  hemolysis at 24 h, 200 µg/mL: 1.2%
[12]
  GI50: 1.44 µM
  CC50: 5.36 µM
[13]
  GI50: 1.54 µM
  CC50: 5.73 µM
[14]
  GI50: 1.39 µM
  CC50: 5.6 µM
[15]
  GI50: 1.7 µM
  CC50: 7.96 µM
[16]
  GI50: 1.56 µM
  CC50: 6.41 µM
[17]
  GI50: 0.91 µM
  CC50: > 100 µM
[18]
  GI50: 1.71 µM
  CC50: 54.6 µM
[19]
  GI50: 2.03 µM
  CC50: 9.06 µM
[20]
  GI50: 0.79 µM
  CC50: > 100 µM
[21]
  GI50: 4.24 µM
  CC50: > 100 µM
[22]
  GI50: 10.6 µM
  CC50: 60.4 µM
[23]
  GI50: 1.29 µM
  CC50: 7.54 µM
[24]
  GI50: 1.75 µM
  CC50: 8.82 µM
[25]
  GI50: 2.22 µM
  CC50: > 100 µM

## COc1cc(/C=C/C(=O)c2ccc(C)cc2)ccc1Oc1nc(NCCO)nc(N2CCOCC2)n1 [20b]
[1]
  GI50: 1.53 µM
  CC50: > 100 µM
[2]
  GI50: > 100 µM
  CC50: > 100 µM
[3]
  GI50: 3.79 µM
  CC50: > 100 µM
[4]
  GI50: 1.5 µM
  CC50: > 100 µM
[5]
  GI50: 5.02 µM
  CC50: > 100 µM
[6]
  GI50: 2.53 µM
  CC50: > 100 µM
[7]
  GI50: 1.88 µM
[8]
  GI50: 0.43 µM
  CC50: 4.09 µM
[9]
  GI50: 2.49 µM
  CC50: > 100 µM
[10]
  GI50: 23 µM
  CC50: > 100 µM
[11]
  hemolysis at 24 h, 200 µg/mL: 3.3%
[12]
  GI50: 2.08 µM
[13]
  GI50: 2.07 µM
[14]
  GI50: 1.98 µM
[15]
  GI50: 1.85 µM
[16]
  GI50: 1.56 µM
[17]
  GI50: 1.06 µM
  CC50: > 100 µM
[18]
  GI50: 2.98 µM
  CC50: > 100 µM
[19]
  GI50: 2.01 µM
[20]
  GI50: 2.09 µM
  CC50: > 100 µM
[21]
  GI50: 2.08 µM
  CC50: > 100 µM
[22]
  GI50: > 100 µM
  CC50: > 100 µM
[23]
  GI50: 8.4 µM
  CC50: > 100 µM
[24]
  GI50: 2.98 µM
  CC50: > 100 µM
[25]
  GI50: 4.6 µM
  CC50: > 100 µM
